Consider 16 compounds from ChEMBL document CHEMBL5291721, “A preclinical secondary pharmacology resource illuminates target-adverse drug reaction associations of marketed drugs” (Nat Commun, 2023).

For test [1], the target named is 5-hydroxytryptamine receptor 2B (Homo sapiens, UniProt P41595). The format is functional, cell-based.
Test [2] deals with T1, Thromboxane A2 receptor (Homo sapiens, UniProt P21731).
T1 sequence (P21731 whole entry): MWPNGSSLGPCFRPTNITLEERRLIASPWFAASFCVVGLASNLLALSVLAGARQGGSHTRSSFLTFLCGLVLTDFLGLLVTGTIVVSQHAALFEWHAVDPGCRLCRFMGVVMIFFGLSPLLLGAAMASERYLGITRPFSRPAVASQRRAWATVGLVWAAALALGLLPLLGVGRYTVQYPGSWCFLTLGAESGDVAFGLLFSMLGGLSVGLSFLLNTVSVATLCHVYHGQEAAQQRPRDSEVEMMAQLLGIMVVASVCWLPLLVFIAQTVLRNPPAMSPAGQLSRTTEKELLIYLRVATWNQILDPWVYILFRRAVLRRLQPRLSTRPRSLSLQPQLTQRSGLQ
Format: functional, cell-based.

The target of the next test is T2, Adenosine receptor A3 (Homo sapiens, UniProt P0DMS8).
T2 sequence (P0DMS8 whole entry): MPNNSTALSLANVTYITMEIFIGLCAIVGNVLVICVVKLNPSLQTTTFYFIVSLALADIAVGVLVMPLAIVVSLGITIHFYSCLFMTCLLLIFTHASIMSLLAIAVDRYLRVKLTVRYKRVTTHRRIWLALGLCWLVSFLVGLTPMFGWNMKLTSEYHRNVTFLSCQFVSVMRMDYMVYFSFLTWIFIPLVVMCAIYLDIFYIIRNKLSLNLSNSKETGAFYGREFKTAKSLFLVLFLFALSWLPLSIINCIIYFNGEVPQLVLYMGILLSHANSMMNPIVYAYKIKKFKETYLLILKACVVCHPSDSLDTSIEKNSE

The target in test [3] is T3, 5-hydroxytryptamine receptor 1A (Homo sapiens, UniProt P08908).
T3 sequence (P08908 whole entry): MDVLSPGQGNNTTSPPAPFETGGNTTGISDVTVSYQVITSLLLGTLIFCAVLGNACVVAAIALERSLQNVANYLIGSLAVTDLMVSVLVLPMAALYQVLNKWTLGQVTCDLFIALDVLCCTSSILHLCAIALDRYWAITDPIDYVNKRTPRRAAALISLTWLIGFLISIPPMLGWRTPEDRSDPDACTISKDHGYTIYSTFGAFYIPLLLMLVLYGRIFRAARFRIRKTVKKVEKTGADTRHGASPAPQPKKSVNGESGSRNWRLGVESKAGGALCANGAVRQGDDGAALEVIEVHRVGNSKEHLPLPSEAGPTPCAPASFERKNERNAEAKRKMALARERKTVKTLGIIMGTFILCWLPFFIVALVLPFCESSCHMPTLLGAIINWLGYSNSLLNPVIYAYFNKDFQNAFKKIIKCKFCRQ

The target of the next test is Prothrombin (Homo sapiens, UniProt P00734). The format is functional.
Test [4] concerns the target T1, Thromboxane A2 receptor. Format: functional, cell-based. This is another data set of the same source.
A further test deals with T4, Progesterone receptor (Homo sapiens, UniProt P06401).
T4 sequence (P06401 whole entry): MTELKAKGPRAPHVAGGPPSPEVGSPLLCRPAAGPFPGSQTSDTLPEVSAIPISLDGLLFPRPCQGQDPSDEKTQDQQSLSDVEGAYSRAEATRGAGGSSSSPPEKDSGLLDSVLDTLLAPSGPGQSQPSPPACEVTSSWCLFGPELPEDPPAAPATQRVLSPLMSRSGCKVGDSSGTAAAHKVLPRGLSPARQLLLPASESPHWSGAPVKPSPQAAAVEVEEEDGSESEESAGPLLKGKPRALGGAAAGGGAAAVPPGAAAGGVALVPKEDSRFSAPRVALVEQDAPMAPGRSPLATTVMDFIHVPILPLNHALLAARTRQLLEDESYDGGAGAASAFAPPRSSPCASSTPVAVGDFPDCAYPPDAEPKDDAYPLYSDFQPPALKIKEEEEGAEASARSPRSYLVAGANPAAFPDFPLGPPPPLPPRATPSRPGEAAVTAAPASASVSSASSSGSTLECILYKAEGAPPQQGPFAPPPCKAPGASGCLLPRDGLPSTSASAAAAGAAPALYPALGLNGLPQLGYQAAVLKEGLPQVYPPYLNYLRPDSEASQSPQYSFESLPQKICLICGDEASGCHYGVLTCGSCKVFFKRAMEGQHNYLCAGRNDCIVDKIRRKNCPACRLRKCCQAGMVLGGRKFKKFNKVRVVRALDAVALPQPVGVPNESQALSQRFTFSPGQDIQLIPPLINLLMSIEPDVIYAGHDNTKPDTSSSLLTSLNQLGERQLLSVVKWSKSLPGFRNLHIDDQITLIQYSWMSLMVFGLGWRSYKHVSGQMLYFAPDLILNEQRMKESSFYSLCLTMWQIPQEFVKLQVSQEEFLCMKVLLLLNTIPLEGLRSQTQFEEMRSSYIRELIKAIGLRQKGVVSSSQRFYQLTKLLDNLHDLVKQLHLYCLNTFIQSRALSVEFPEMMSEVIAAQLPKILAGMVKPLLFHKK

Test [5] addresses Vascular endothelial growth factor receptor 2 (Homo sapiens, UniProt P35968). Format: functional.
Further: assay procedure not described here.

Sequence of Vascular endothelial growth factor receptor 2 (P35968 whole entry): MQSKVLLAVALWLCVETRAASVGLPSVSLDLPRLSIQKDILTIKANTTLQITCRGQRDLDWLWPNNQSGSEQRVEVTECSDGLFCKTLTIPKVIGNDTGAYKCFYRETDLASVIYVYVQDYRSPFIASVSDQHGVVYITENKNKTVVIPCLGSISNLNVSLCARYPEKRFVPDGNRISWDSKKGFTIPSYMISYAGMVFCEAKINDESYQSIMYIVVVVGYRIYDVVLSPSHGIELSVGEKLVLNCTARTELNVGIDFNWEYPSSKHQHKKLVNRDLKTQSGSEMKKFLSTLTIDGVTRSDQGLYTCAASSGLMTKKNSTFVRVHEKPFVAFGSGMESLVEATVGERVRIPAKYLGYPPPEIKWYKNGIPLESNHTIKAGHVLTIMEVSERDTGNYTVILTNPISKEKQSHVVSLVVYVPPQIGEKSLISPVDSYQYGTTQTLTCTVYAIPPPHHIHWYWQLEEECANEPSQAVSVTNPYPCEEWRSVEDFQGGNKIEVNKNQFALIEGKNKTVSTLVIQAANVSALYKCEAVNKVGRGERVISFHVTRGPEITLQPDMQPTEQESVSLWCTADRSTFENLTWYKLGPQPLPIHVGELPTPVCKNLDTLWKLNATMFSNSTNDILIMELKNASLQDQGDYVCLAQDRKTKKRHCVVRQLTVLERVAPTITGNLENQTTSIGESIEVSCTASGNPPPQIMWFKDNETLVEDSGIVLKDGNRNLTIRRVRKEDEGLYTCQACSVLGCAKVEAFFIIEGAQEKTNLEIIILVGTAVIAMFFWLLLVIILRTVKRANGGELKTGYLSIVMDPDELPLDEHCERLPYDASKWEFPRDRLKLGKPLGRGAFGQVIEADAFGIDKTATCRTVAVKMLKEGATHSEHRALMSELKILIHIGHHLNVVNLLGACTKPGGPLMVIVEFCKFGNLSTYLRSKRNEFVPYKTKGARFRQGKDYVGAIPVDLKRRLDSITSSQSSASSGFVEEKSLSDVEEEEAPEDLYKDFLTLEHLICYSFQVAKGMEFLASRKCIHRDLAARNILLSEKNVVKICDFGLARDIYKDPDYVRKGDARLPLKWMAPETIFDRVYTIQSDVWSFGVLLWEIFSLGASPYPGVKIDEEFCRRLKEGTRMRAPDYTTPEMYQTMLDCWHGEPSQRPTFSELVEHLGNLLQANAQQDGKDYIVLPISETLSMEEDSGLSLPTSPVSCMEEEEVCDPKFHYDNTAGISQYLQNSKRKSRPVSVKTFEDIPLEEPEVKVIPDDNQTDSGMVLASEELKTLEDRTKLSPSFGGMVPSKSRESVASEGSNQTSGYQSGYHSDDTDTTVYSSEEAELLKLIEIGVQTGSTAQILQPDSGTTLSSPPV
Sequence of 5-hydroxytryptamine receptor 2B (P41595 whole entry): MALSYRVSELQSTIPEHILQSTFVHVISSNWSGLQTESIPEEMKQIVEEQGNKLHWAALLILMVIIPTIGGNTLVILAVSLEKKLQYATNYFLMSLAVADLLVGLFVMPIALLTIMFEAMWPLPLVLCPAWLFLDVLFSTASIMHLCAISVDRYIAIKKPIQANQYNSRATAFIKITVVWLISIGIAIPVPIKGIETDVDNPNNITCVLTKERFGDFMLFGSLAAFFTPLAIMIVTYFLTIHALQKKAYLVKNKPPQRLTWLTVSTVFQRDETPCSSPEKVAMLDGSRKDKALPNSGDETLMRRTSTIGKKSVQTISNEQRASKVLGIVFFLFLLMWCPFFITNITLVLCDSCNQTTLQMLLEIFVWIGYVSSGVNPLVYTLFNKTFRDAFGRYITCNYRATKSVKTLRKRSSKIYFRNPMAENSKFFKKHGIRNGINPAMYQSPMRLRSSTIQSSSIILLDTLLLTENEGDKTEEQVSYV

For the compound `O=c1[nH]c(=O)n(C2CCCO2)cc1F` (configuration not stated) [TEGAFUR], the AC50 (in test [1]; on Thromboxane A2 receptor [2]; at Adenosine receptor A3; in test [3]; on Prothrombin; on Thromboxane A2 receptor [4]) was greater than 30 µM each time. For the same compound, the half-maximal activity concentration (AC50) (at Progesterone receptor; in test [5]) was greater than 30 µM each time.

Regarding `CCN1CCCC1CNC(=O)c1cc(S(N)(=O)=O)ccc1OC` (configuration not stated) [SULPIRIDE], the half-maximal activity concentration (AC50) (in test [1]; at Thromboxane A2 receptor [2]; on Adenosine receptor A3; in test [3]; on Prothrombin; on Thromboxane A2 receptor [4]) was greater than 30 µM each time. Moreover, the half-maximal activity concentration (AC50) (at Progesterone receptor; in test [5]) was greater than 30 µM each time.

On to `COc1cc2c3cc1Oc1cc(ccc1O)C[C@@H]1c4c(cc(OC)c(O)c4Oc4ccc(cc4)C[C@@H]3N(C)CC2)CC[N+]1(C)C` [TUBOCURARINE], for which the AC50 (in test [1]; on Thromboxane A2 receptor [2]; at Adenosine receptor A3; in test [3]; on Prothrombin; at Thromboxane A2 receptor [4]) was greater than 30 µM in each case. In addition, the concentration at half-maximal activity (AC50) (on Progesterone receptor; in test [5]) was greater than 30 µM each time.

With `COc1cc2nc(N3CCN(C(=O)c4ccco4)CC3)nc(N)c2cc1OC` [PRAZOSIN], the half-maximal activity concentration (AC50) in test [1] is greater than 30 µM; at Thromboxane A2 receptor [2], greater than 30 µM; at Prothrombin it was greater than 10 µM; on Thromboxane A2 receptor [4], greater than 30 µM; on Progesterone receptor, greater than 30 µM.

Turning to `COc1ccccc1N1CCN(CC(O)COc2cccc3ccccc23)CC1` (configuration not stated) [NAFTOPIDIL], the AC50 in test [1] is greater than 30 µM; on Thromboxane A2 receptor [2] it was greater than 3 µM; in test [3], 0.0086 µM; on Prothrombin, greater than 30 µM; on Thromboxane A2 receptor [4] it was greater than 30 µM; at Progesterone receptor it was greater than 30 µM.

With `Nc1nc2nc[nH]c2c(=S)[nH]1` [THIOGUANINE], the concentration at half-maximal activity (AC50) (in test [1]; at Thromboxane A2 receptor [2]; at Adenosine receptor A3; in test [3]; on Prothrombin; at Thromboxane A2 receptor [4]) was greater than 30 µM in each case. The AC50 at Progesterone receptor was greater than 30 µM.

On to `COc1cc([C@@H]2c3cc4c(cc3[C@H](O)[C@H]3COC(=O)[C@H]23)OCO4)cc(OC)c1OC` [PODOFILOX], for which the AC50 (in test [1]; on Thromboxane A2 receptor [2]; at Adenosine receptor A3; in test [3]; on Prothrombin; on Thromboxane A2 receptor [4]) was greater than 30 µM each time. The AC50 (on Progesterone receptor; in test [5]) was greater than 30 µM throughout.

Turning to `Clc1cc(Cl)c(OCC#CI)cc1Cl` [HALOPROGIN], the AC50 in test [1] was greater than 30 µM; at Thromboxane A2 receptor [2], greater than 30 µM; at Adenosine receptor A3, 0.946 µM; in test [3], greater than 30 µM; on Prothrombin, greater than 30 µM; on Thromboxane A2 receptor [4] it was greater than 30 µM. Also, the AC50 (on Progesterone receptor; in test [5]) was greater than 30 µM in each case.

Turning to `O=c1[nH]c(=O)n([C@H]2C[C@H](O)[C@@H](CO)O2)cc1I` [IDOXURIDINE], the AC50 (in test [1]; on Thromboxane A2 receptor [2]; at Adenosine receptor A3; in test [3]; at Prothrombin; on Thromboxane A2 receptor [4]) was greater than 30 µM each time. The half-maximal activity concentration (AC50) (on Progesterone receptor; in test [5]) was greater than 30 µM in each case.

As to `CC[C@]1(O)C[C@H]2CN(CCc3c([nH]c4ccccc34)[C@@](C(=O)OC)(c3cc4c(cc3OC)N(C=O)[C@H]3[C@@](O)(C(=O)OC)[C@H](OC(C)=O)[C@]5(CC)C=CCN6CC[C@]43[C@@H]65)C2)C1` [VINCRISTINE], the concentration at half-maximal activity (AC50) (in test [1]; at Thromboxane A2 receptor [2]; at Adenosine receptor A3; in test [3]; on Prothrombin; on Thromboxane A2 receptor [4]) was greater than 30 µM each time. This compound showed an AC50 at Progesterone receptor greater than 30 µM.

With `Cc1cc(C)c(NC(=O)CN(CC(=O)O)CC(=O)O)c(C)c1Br` [MEBROFENIN], the AC50 (in test [1]; on Thromboxane A2 receptor [2]; in test [3]; on Prothrombin; on Thromboxane A2 receptor [4]; at Progesterone receptor) was greater than 30 µM in each case.

For the compound `CCCC1O[C@@H]2C[C@H]3[C@@H]4CCC5=CC(=O)C=C[C@]5(C)[C@H]4[C@@H](O)C[C@]3(C)[C@]2(C(=O)CO)O1` (some centres not stated) [BUDESONIDE], the concentration at half-maximal activity (AC50) (in test [1]; at Thromboxane A2 receptor [2]; on Adenosine receptor A3; in test [3]; on Prothrombin; at Thromboxane A2 receptor [4]) was greater than 30 µM each time. Besides, the AC50 in test [5] is greater than 30 µM.

Consider `C=CCCCCCCCCC(=O)O` [UNDECYLENIC ACID], for which the AC50 (in test [1]; at Thromboxane A2 receptor [2]; in test [3]; at Prothrombin; at Thromboxane A2 receptor [4]; on Progesterone receptor) was greater than 30 µM throughout.

As for `O=c1[nH]c(=O)n([C@H]2C[C@H](O)[C@@H](CO)O2)cc1F` [FLOXURIDINE], the AC50 (in test [1]; at Thromboxane A2 receptor [2]; at Adenosine receptor A3; in test [3]; on Prothrombin; on Thromboxane A2 receptor [4]) was greater than 30 µM in each case. The AC50 (on Progesterone receptor; in test [5]) was greater than 30 µM throughout.

In the case of `Cc1oc(=O)oc1CN1CCN(c2cc3c(cc2F)c(=O)c(C(=O)O)c2n3C(C)S2)CC1` (configuration not stated) [PRULIFLOXACIN], the AC50 (in test [1]; on Thromboxane A2 receptor [2]; in test [3]; on Prothrombin; on Thromboxane A2 receptor [4]; at Progesterone receptor) was greater than 30 µM throughout.

For the compound `CC[C@H]1CN2CCc3cc(OC)c(OC)cc3[C@@H]2C[C@@H]1C[C@H]1NCCc2cc(OC)c(OC)cc21` [EMETINE], the concentration at half-maximal activity (AC50) in test [1] is greater than 30 µM; at Thromboxane A2 receptor [2], greater than 30 µM; in test [3] it was 22.7 µM; on Prothrombin, greater than 30 µM; on Thromboxane A2 receptor [4], greater than 30 µM; at Progesterone receptor it was greater than 30 µM.
